Consider five compounds from patent US8318184B2, “MGLU2 agonists” (Eli Lilly and Company, priority 2009, dated 2012).

The subject of series [1] is Sprague-Dawley rats. As to the kind of experiment: Reversal of Phencyclidine (PCP)-Induced Hyperlocomotor Activity in Rats. The class given is in vivo. The settings on record: Rattus norvegicus, p.o., overnight fasted, 4 hours prior to 5 mg/kg PCP. From the text:
Administration of NMDA receptor antagonists, such as ketamine or phencyclidine (PCP), produces psychotomimetic-like effects in humans that are similar to those symptoms observed in patients with schizophrenia.
Motor activity is monitored by placing individual male, Sprague-Dawley (Harlan, Indianapolis, Ind.) rats in transparent, plastic shoe-box cages of the dimensions 45×25×20 cm, with 1 cm depth of wood chips as bedding, and a metal grill on top of the cage. Motor monitors (Kinder Scientific) consist of a rectangular rack of 12 photobeams arranged in an 8×4 formation, (or a high density grouping of 22 in a 15×7 pattern) at a height of 5 cm, with a second rack (for measuring rearing behaviors) at a height of 15 cm. The shoe box cage is placed inside of these racks, with the racks on a 3 foot high tabletop in an isolated room. A compound of the present invention is dosed (intraperitoneal route (i.p.), non-prodrug) within a range of 0.3-10 mg/kg, 30 minutes prior to a 5 mg/kg challenge dose of phencyclidine (PCP). A compound of the present invention is dosed (oral route, prodrug) within a range of 0.3-30 mg/kg, in overnight fasted rats, 4 hours prior to a 5 mg/kg challenge dose of PCP. On the test day, rats are placed in the test cage and allowed to acclimate for 30 minutes prior to PCP challenge; rats are monitored for an additional 60 minutes following PCP administration.
Data analysis and ED50 calculations are conducted using GraphPad Prism (San Diego, Calif. USA). Power analyses have determined that 8-10 rats per group are needed to have appropriate statistical power for detecting treatment differences (power=0.8). A one-way analysis of variance (ANOVA) with a post-hoc Dunnett's multiple comparison test is conducted on the total 60 minute locomotor activity. ED50 calculations are performed using non-linear regression curve fitting on percent reversal transformed data for each dose.

The next series addresses T1, hPepT1 (Homo sapiens, UniProt P46059).
T1 construct: expressed in transfected cells; host or cells: HeLa cells (ATCC), transient transfection with FuGene6
T1 sequence (P46059 1-708): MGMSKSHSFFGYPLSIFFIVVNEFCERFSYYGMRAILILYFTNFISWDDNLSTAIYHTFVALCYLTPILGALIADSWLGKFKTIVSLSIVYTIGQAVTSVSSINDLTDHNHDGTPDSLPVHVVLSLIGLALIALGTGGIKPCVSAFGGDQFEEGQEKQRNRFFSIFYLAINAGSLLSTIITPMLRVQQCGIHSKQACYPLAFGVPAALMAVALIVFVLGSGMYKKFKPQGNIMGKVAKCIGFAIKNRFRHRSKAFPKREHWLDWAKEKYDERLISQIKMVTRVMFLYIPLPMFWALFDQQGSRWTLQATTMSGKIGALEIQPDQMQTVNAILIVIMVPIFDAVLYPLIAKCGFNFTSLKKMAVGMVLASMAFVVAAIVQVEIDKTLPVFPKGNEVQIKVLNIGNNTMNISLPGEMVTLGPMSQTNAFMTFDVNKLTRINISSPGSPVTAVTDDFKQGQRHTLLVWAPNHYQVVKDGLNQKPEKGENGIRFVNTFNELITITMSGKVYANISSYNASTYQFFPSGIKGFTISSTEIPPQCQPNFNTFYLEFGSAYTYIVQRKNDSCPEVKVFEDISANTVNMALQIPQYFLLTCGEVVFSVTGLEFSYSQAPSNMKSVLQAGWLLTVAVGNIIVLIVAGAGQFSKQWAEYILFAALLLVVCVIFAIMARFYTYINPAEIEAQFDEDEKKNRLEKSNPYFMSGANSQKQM
Nature of the series: In Vitro PepT1 GlySar Inhibition Screen and IC50 Determination. It counts as cell-based. The note with it: for inhibition at 5000 µM: 5 mM, pH 6.0, PepT1 transiently transfected HeLa cells, read-out: hPepT1 [3H]Gly-Sar uptake inhibition at 5 mM. On the procedure:
PepT1 assays are established to examine the ability of the amino acid prodrug compounds to interact with the intestinal absorption transporter PepT1.
HeLa cells, […], (American Type Culture Collection) are grown in Hyclone Medium (Invitrogen, Cat# SH30243) containing 10% fetal bovine serum (FBS), 0.1 mM non essential amino acids (NEAA), and 100 units/mL penicillin with 100 μg/mL streptomycin at 37° C. in a 5% CO2 humidified atmosphere. The cell line is used for up to 40 passages and then discarded. Frozen cells in 1 ml vials are thawed in water bath for 1-2 minutes and added to 5 mL of cell medium at 37° C. Each of the T-flasks is provided with 8.5 mL of the fresh medium and 1.5 mL of the cell stock. Cells are passaged twice during a week. This is achieved by rinsing the flasks with 10 mL of phosphate buffered saline-ethylene diaminetetra acetic acid (PBS-EDTA), adding 2 mL of trypsin for 2-5 minutes, to detach the cells, and adding 8 mL of fresh medium to inhibit further activity of trypsin. Each new flask receives a combination of 8.5 mL of fresh medium and 1.5 mL of cell stock, in order to obtain 1:6 cell dilution. Cells are incubated at 37° C., until ready for the uptake study.
Cells that are 70-80% confluent in the T-flasks are plated 1 day prior to the transfection procedure. The flask with the cell stock is treated with PBS-EDTA and trypsin to detach the cells, and transfection medium is used from this point. Transfection medium consists of Dulbecco's Modified Eagle Medium (DMEM)+NEAA. To each well, 0.5 mL of the cell mixture is added (1.3×10^5 is the desired cell concentration) and the cells are incubated at 37° C. overnight. Twenty four hours before the assay, cells are transfected with PEPT1. Transfection mixture is prepared by mixing 600 μL of serum free transfection medium, 18 μL of FuGene6 (Roche Diagnostics), and 11 μg of the PepT1 DNA. The transfection reagent-DNA complex is incubated for 20 minutes and 24 μL of the reagent-DNA complex is added to each well.
J. Pharm. Exper Ther. 310:437-445). […] Uptake media consists of 140 mM NaCl, 5.4 mM KCl, 1.8 mM CaCl2, 0.8 mM MgSO4, 5 mM Glucose, 25 mM tris(hydroxymethyl)aminomethane buffer (TRIS). The solution is then brought to pH 6.0 using 2-(N-morpholino)ethanesulfonic acid. The incubation volume is 500 μL and is performed at room temperature for 3 minutes. To stop the uptake at the conclusion of the incubation time, the uptake media is aspirated off of the cell monolayer and 500 μL of ice cold PBS added to the well. The cells are washed 3 times with 500 μL of room temperature PBS without Ca^+2 and Mg^+2. The cells are then lysed with 300 μL of 1% Triton X100 H2O solution. […] A no inhibitor control is established and the percent inhibition of each prodrug is calculated with respect to this control.
The incubation and sampling procedures are exactly the same as the PepT1 screen described above. […]

For series [2] the following is noted: 1 h, 10 µM, pH 7.4.
Description: Frozen human duodenum intestinal homogenates (1:2 tissue:buffer ratio using 100 mM Tris Phosphate buffer, pH 7.4) are obtained from Celsius In Vitro Technologies (Baltimore, Md.) that were both phenylmethylsulphonylfluoride (PMSF) and EDTA free.
Each lot of human duodenum is obtained from a single donor and the intestine is scraped and the sections are frozen separate. All original tissue collections are performed at 4° C. and immediately frozen at −70° C. Human intestinal homogenates are thawed and diluted to a final protein concentration of 0.5 mg/mL in 100 mM PBS buffer, pH 7.4 immediately prior to the incubations.
Incubations are conducted in 96-well plates and all prodrug compounds are run in duplicate on each day. Stock prodrug compound solutions are prepared in water at a concentration of 1 mM. A 200 μL aliquot of 0.5 mg/mL intestinal homogenate and 196 μL of 100 mM PBS buffer are placed in a 96-well plate in a 37° C. water bath. Using a 96-well pipettor, 4 μL of the 1 mM prodrug compound solution is transferred into the homogenate. Immediately after addition of the prodrug compound (time zero) and after 1 hour incubation, 50 μL samples of the incubation mixture are removed using an automated disposable simultaneous 96 well pipettor and added directly to 200 μL of methanol quench solution containing 100 ng/mL of Internal Standard. The samples are then centrifuged at 3500 rpm for 5 minutes at 10° C. The supernatant (200 μL) is transferred to a final 96 well PCR plate and sealed for analysis by LC/MS/MS.
Concentrations of hydrolyzed compounds of the present invention in the incubation mixtures are determined using LC/MS/MS detection on a Sciex API 4000 quadrapole mass spectrometer with Analyst version 1.4.2, TurboIonSpray, positive ionization, and Selected Reaction Monitoring (SRM). A Waters Atlantis® T3 (20×2.1 mm, 5 μM) HPLC column is used at ambient temperature with a flow rate of 1.0 mL/min and a mobile phase gradient from 0.1% mobile phase A to 99% mobile phase A. Mobile phase A is 1000:5 water:heptafluorobuteric acid and mobile phase B is 1:1 methanol:glacial acetic acid.
Concentrations of hydrolyzed compounds of the present invention in the intestinal incubation mixtures are determined from standard curves prepared by replicate two-fold dilution starting at 10 μM in 100 mM PBS pH 7.4 and subsequently quenched with methanol-internal standard solution identical to the samples. Averages and standard deviations are calculated using Microsoft® Office Excel® 2007. Amount of hydrolysis is determined as a molar percentage of compound formed relative to prodrug compound concentration added. […] Final values are then normalized relative to the formation of Internal Compound Drug A.
A further series concerns NIH-Swiss mice. Nature of the series: Forced Swim Test in mice. The class given is in vivo, mouse. The note with it: positive control over multiple studies. On the procedure:
(§1) In this assay, mechanisms with purported antidepressant-like activity decrease immobility in a brief inescapable forced swim episode.
The forced-swim test is conducted with both mice (male, NIH-Swiss mice, 20-25 g, Harlan Sprague-Dawley, Indianapolis, Ind.) and rats (male, Sprague-Dawley rats, 250-350 g, Harlan Sprague-Dawley, Indianapolis, Ind.). Mice are placed in clear plastic cylinders (diameter 10 cm; height: 25 cm) filled to 6 cm with 22-25° C. water for six min. The duration of immobility is recorded during the last 4 min of a six-minute trial. Rats are treated similarly, albeit in clear plastic cylinders of larger dimensions (diameter: 18 cm; height: 40 cm) filled with water (22-25° C.) to a depth of 16 cm for 15 min. Additionally, mice receive a single forced swim exposure; rats receive two, 5-min sessions separated by 24 hours (data is recorded only on Day 2). […] Imipramine is used as a positive control for these studies. […] Compounds are in a clear solution. The amount of time spent immobile (defined as movements only necessary to keep the subject's head above water) is the dependent measure and recorded by an observer blinded to the drug treatment of the subjects. Data are analyzed by post-hoc Dunnett's test with alpha level set at 0.05. The mouse version of the forced swim test is most commonly used.

Series [3] concerns Sprague-Dawley rats. Nature of the series: Forced Swim Test in rats. It counts as in vivo, rat. The settings on record: 30 mg/kg. On the procedure:
as §1
The forced-swim test is conducted with both mice (male, NIH-Swiss mice, 20-25 g, Harlan Sprague-Dawley, Indianapolis, Ind.) and rats (male, Sprague-Dawley rats, 250-350 g, Harlan Sprague-Dawley, Indianapolis, Ind.). Mice are placed in clear plastic cylinders (diameter 10 cm; height: 25 cm) filled to 6 cm with 22-25° C. water for six min. The duration of immobility is recorded during the last 4 min of a six-minute trial. Rats are treated similarly, albeit in clear plastic cylinders of larger dimensions (diameter: 18 cm; height: 40 cm) filled with water (22-25° C.) to a depth of 16 cm for 15 min. Additionally, mice receive a single forced swim exposure; rats receive two, 5-min sessions separated by 24 hours (data is recorded only on Day 2). The compound of Example 1 is tested in mice using intraperitoneal dosing (1, 3, or 10 mg/kg), 60 min prior to testing. […] Example 2 is administered 5 min following the first forced swim exposure and 120 min prior to the test session on Day 2. Imipramine is used as a positive control for these studies. Compounds are formulated in a water vehicle, with minimal NaOH being added to Example 1 and Example 2. Compounds are in a clear solution. The amount of time spent immobile (defined as movements only necessary to keep the subject's head above water) is the dependent measure and recorded by an observer blinded to the drug treatment of the subjects. Data are analyzed by post-hoc Dunnett's test with alpha level set at 0.05. The mouse version of the forced swim test is most commonly used. An ED60 value (60% of the amount of immobility relative to vehicle controls) is calculated to estimate potency of the test compounds.

A word on the ED50: it is the dose that gives a 50% effect, or the effect in half of the subjects. Broadly, the inhibition is the change of the read-out against control, counted positive when it falls. A word on the IC50: it is the concentration needed to halve the response being measured. In the case of `CSCC[C@H](N)C(=O)N[C@@]1(C(=O)O)C[C@@H](Sc2nnc[nH]2)[C@H]2[C@H](C(=O)O)[C@H]21.Cl` [Example 3, (1R,2S,4R,5R,6R)-2-[[(2S)-2-Amino-4-methylsulfanyl-butanoyl]amino]-4-(4H-1,2,4-triazol-3-ylsulfanyl)bicyclo[3.1.0]hexane-2,6-dicarboxylic acid hydrochloride], the ED50 in the series with Sprague-Dawley rats [1] was 5.46 mg/kg. In addition, the inhibition at 5000 µM on hPepT1 was 51%. At hPepT1 (0.0625 to 25 mM, PepT1 transfected HeLa cells, read-out: hPepT1 [3H]Gly-Sar uptake inhibition IC50), the IC50 is 5.36 mM. Further, the “human intestinal hydrolysis relative to Internal Prodrug Compound A” value in series [2] was determined as 53%.
Take `CC(C)C[C@H](N)C(=O)N[C@@]1(C(=O)O)C[C@@H](Sc2nnc[nH]2)[C@H]2[C@H](C(=O)O)[C@H]21.Cl` [Example 4, (1R,2S,4R,5R,6R)-2-[[(2S)-2-Amino-4-methyl-pentanoyl]amino]-4-(4H-1,2,4-triazol-3-ylsulfanyl)bicyclo[3.1.0]hexane-2,6-dicarboxylic acid hydrochloride]: on hPepT1, the inhibition at 5000 µM was found to be 32%. For the same compound, the “human intestinal hydrolysis relative to Internal Prodrug Compound A” value in series [2] is given as 45%.
For `Cl.NCC(=O)N[C@@]1(C(=O)O)C[C@@H](Sc2nnc[nH]2)[C@H]2[C@H](C(=O)O)[C@H]21` [Example 5, (1R,2S,4R,5R,6R)-2-[(2-Aminoacetyl)amino]-4-(4H-1,2,4-triazol-3-ylsulfanyl)bicyclo[3.1.0]hexane-2,6-dicarboxylic acid hydrochloride] the same measures were 44% and 35%.
Take `N[C@@]1(C(=O)OCc2ccccc2)C[C@@H](Sc2nnc[nH]2)[C@H]2[C@H](C(=O)OCc3ccccc3)[C@H]21` [Example 6, Dibenzyl (1R,2S,4R,5R,6R)-2-amino-4-(4H-1,2,4-triazol-3-ylsulfanyl)bicyclo[3.1.0]hexane-2,6-dicarboxylate]: in series [2], the “human intestinal hydrolysis relative to Internal Prodrug Compound A” value worked out at 2%.
As to `CN(C)CCCN1c2ccccc2CCc2ccccc21` [imipramine, reference compound], in the series on NIH-Swiss mice, the ED60 worked out at 8.6 ± 1.2 mg/kg and the “effect, % of vehicle immobility levels” value worked out at 39±1.2%. Also, the “immobility as % of vehicle controls” value with Sprague-Dawley rats [3] is reported as 70%.
